Where a name gives a salt, the structure may show the parent alone.
Biological target: T1, hNET (Homo sapiens, UniProt P23975)
T1 construct: expressed in transfected cells
Assay: Norepinephrine (NE) uptake assay in MDCK-Net6 cells stably transfected with human hNET
Format: cell-based
Conditions: MDCK-Net6, read-out: % Inhibition @ 1 μM (hNET)

T1 sequence (P23975 whole entry): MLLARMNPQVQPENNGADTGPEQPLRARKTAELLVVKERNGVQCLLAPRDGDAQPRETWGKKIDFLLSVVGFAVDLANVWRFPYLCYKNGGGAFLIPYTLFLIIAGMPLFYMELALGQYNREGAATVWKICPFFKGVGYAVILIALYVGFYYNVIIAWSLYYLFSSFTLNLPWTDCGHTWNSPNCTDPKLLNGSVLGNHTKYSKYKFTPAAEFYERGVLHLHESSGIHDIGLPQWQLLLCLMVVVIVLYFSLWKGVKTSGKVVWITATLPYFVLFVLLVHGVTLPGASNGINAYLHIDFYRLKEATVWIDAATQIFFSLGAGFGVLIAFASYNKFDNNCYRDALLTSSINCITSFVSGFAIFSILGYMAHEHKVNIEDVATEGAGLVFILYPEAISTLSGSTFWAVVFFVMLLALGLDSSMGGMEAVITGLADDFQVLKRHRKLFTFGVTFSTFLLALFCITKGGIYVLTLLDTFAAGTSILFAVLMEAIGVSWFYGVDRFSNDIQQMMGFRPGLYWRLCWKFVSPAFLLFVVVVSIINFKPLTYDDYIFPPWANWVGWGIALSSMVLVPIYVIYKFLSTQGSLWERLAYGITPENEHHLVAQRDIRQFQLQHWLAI

| SMILES | inhibition at 1 µM [%] |
| --- | --- |
| CNC[C@H](O)[C@@H](c1ccccc1)n1ccc2cc(Cl)ccc21 (racemic) [Example 26, (1RS,2SR)-1-(5-chloro-1H-indol-1-yl)-3-(methylamino)-1-phenylpropan-2-ol hydrochloride] | 54 |
| CNC[C@@H](O)[C@H](c1cccc(F)c1)n1ccc2cccc(F)c21 [Example 183, (1S,2R)-1-(7-fluoro-1H-indol-1-yl)-1-(3-fluorophenyl)-3-(methylamino)propan-2-ol hydrochloride] | 100 |
| CNC[C@@H](O)[C@H](c1ccccc1Cl)n1ccc2ccccc21 [Example 38, (1S,2R)-1-(2-chlorophenyl)-1-(1H-indol-1-yl)-3-(methylamino)propan-2-ol hydrochloride] | 71.9 |
| CNC[C@@H](O)[C@H](c1cccc(F)c1)n1ccc2cc(Cl)ccc21 [Example 153, (1S,2R)-1-(5-chloro-1H-indol-1-yl)-1-(3-fluorophenyl)-3-(methylamino)propan-2-ol hydrochloride] | 97.4 |
| CNC[C@@H](O)[C@H](c1cccc(F)c1)n1ccc2cc(Br)ccc21 [Example 127, (1S,2R)-1-(5-bromo-1H-indol-1-yl)-1-(3-fluorophenyl)-3-(methylamino)propan-2-ol hydrochloride] | 95.7 |
| Cc1cn([C@@H](c2ccccc2)[C@H](O)CN)c2ccccc12 [Example 178, (1S,2R)-3-amino-1-(3-methyl-1H-indol-1-yl)-1-phenylpropan-2-ol hydrochloride] | 69.2 |
| CNC[C@@H](O)[C@@H](c1ccccc1)n1ccc2ccccc21 (racemic) [Example 16, (1RS,2RS)-1-(1H-indol-1-yl)-3-(methylamino)-1-phenylpropan-2-ol hydrochloride] | 96.8 |
| CNCC(O)[C@@H](c1ccccc1)n1ccc2ccccc21 (stereo in doubt) [Example 22, (1R,2S)-1-(1H-indol-1-yl)-3-(methylamino)-1-phenylpropan-2-ol hydrochloride] | 83.8 |
| CNC[C@@H](O)[C@H](c1cccc(Br)c1)n1ccc2ccccc21 [Example 43, (1S,2R)-1-(3-bromophenyl)-1-(1H-indol-1-yl)-3-(methylamino)propan-2-ol hydrochloride] | 99 |
| CNC[C@H](O)[C@@H](c1ccccc1)n1ccc2ccccc21 (racemic) [Example 11, (1RS,2SR)-1-(1H-indol-1-yl)-3-(methylamino)-1-phenylpropan-2-ol hydrochloride] | 94.5 |
| CNC[C@@H](O)[C@H](c1ccccc1)n1ccc2cc(F)ccc21 [Example 75, (1S,2R)-1-(5-fluoro-1H-indol-1-yl)-3-(methylamino)-1-phenylpropan-2-ol hydrochloride] | 88.4 |
| Cc1cn([C@H](c2ccccc2)[C@@H](O)CN)c2ccccc12 (racemic) [Example 24, (1RS,2SR)-3-amino-1-(3-methyl-1H-indol-1-yl)-1-phenylpropan-2-ol hydrochloride] | 57.2 |
| CNC[C@@H](O)[C@H](c1cccc(F)c1)n1ccc2c(Cl)cccc21 [Example 150, (1S,2R)-1-(4-chloro-1H-indol-1-yl)-1-(3-fluorophenyl)-3-(methylamino)propan-2-ol hydrochloride] | 98.3 |
| CNC[C@@H](O)[C@@H](c1ccccc1)n1ccc2cc(Cl)ccc21 (racemic) [Example 27, hydrochloride] | 75.4 |
| CCNC[C@H](O)[C@@H](c1ccccc1)n1cc(C)c2ccccc21 (racemic) [Example 12, (1RS,2SR)-3-(ethylamino)-1-(3-methyl-1H-indol-1-yl)-1-phenyl propan-2-ol hydrochloride] | 70.6 |
| CNC[C@@H](O)[C@H](c1ccccc1)n1ccc2cc(OC)ccc21 [Example 76, (1S,2R)-1-(5-methoxy-1H-indol-1-yl)-3-(methylamino)-1-phenylpropan-2-ol hydrochloride] | 75.2 |
| CNC[C@H](O)[C@@H](c1ccccc1)n1ccc2cc(F)ccc21 (racemic) [Example 20, (1RS,2SR)-1-(5-fluoro-1H-indol-1-yl)-3-(methylamino)-1-phenylpropan-2-ol hydrochloride] | 85 |
| CCn1c(=O)n([C@@H](c2ccccc2)[C@H](O)CNC)c2cc(F)ccc21 [Example 206, 1-Ethyl-5-fluoro-3-[(1S,2R)-2-hydroxy-3-(methylamino)-1-phenylpropyl]-1,3-dihydro-2H-benzimidazol-2-one hydrochloride] | 96.9 |
| CCCn1c(=O)n([C@@H](c2ccccc2)[C@H](O)CNC)c2ccccc21 [Example 193, 1-[(1S,2R)-2-hydroxy-3-(methylamino)-1-phenylpropyl]-3-propyl-1,3-dihydro-2H-benzimidazol-2-one hydrochloride] | 98.4 |
| CNC[C@@H](O)[C@H](c1cccc(F)c1)n1cc(C)c2ccccc21 [Example 143, (1S,2R)-1-(3-fluorophenyl)-3-(methylamino)-1-(3-methyl-1H-indol-1-yl)propan-2-ol hydrochloride] | 96.8 |

Same assay, conditions: test compound 1 μM; [3H]NE uptake, MDCK-Net6 cells; read-out: % Inhibition @ 1 μM (hNET)

| inhibition at 1 µM [%] | SMILES |
| --- | --- |
| 99.7 | CNC[C@@H](O)[C@H](c1cccc(F)c1)n1cc(-c2ccccc2C)c2ccccc21 [Example 62, (1S,2R)-1-(3-fluorophenyl)-3-(methylamino)-1-[3-(2-methylphenyl)-1H-indol-1-yl]propan-2-ol] |
| 70.4 | Cc1cn([C@@H](c2ccccc2)[C@H](O)CN)c2c(F)cccc12 [Example 180, (1S,2R)-3-amino-1-(7-fluoro-3-methyl-1H-indol-1-yl)-1-phenylpropan-2-ol hydrochloride] |
| 97.4 | CNC[C@@H](O)[C@H](c1ccccc1)n1cc(C)c2cccc(Cl)c21 [Example 122, (1S,2R)-1-(7-chloro-3-methyl-1H-indol-1-yl)-3-(methylamino)-1-phenylpropan-2-ol hydrochloride] |
| 97.3 | CNC[C@@H](O)[C@H](c1cccc(F)c1)n1cc(-c2cccc(F)c2)c2ccccc21 [Example 116, (1S,2R)-1-(3-fluorophenyl)-1-[3-(3-fluorophenyl)-1H-indol-1-yl]-3-(methylamino)propan-2-ol hydrochloride] |
| 97.8 | CNC[C@@H](O)[C@H](c1ccccc1)n1ccc2cccc(Cl)c21 [Example 148, (1S,2R)-1-(7-chloro-1H-indol-1-yl)-3-(methylamino)-1-phenylpropan-2-ol hydrochloride] |
| 80.8 | CNC[C@@H](O)[C@H](c1cccc(F)c1)n1ccc2cc(C(F)(F)F)ccc21 [Example 185, (1S,2R)-1-(3-fluorophenyl)-3-(methylamino)-1-[5-(trifluoromethyl)-1H-indol-1-yl]propan-2-ol hydrochloride] |
| 86.4 | CNC[C@@H](O)[C@H](c1ccccc1)N1C(=O)C(C)(C)c2cc(F)ccc21 [Example 110, 5-fluoro-1-[(1S,2R)-2-hydroxy-3-(methylamino)-1-phenylpropyl]-3,3-dimethyl-1,3-dihydro-2H-indol-2-one hydrochloride] |
| 97.9 | CNC[C@@H](O)[C@H](c1cccc(C(F)(F)F)c1)N1CCc2ccccc21 [Example 138, (1S,2R)-1-(2,3-dihydro-1H-indol-1-yl)-3-(methylamino)-1-[3-(trifluoromethyl)phenyl]propan-2-ol hydrochloride] |
| 26.5 | CN1CCN(C[C@@H](O)[C@H](c2cccc(F)c2)n2ccc3ccccc32)CC1 [Example 58, (1S,2R)-1-(3-fluorophenyl)-1-(1H-indol-1-yl)-3-(4-methylpiperazin-1-yl)propan-2-ol dihydrochloride] |
| 100 | CNC[C@@H](O)[C@H](c1cccc(F)c1)n1cc(-c2ccccc2OC)c2ccccc21 [Example 176, (1S,2R)-1-(3-fluorophenyl)-1-[3-(2-methoxyphenyl)-1H-indol-1-yl]-3-(methylamino)propan-2-ol hydrochloride] |
| 94.3 | CNC[C@@H](O)[C@H](c1cccc(OC(F)(F)F)c1)n1ccc2ccccc21 [Example 35, (1S,2R)-1-(1H-indol-1-yl)-3-(methylamino)-1-[3-(trifluoromethoxy)phenyl]propan-2-ol hydrochloride] |
| 98.7 | CNC[C@@H](O)[C@H](c1ccccc1)N1C(=O)C2(CCCC2)c2ccccc21 [Example 108, 1′-[(1S,2R)-2-hydroxy-3-(methylamino)-1-phenylpropyl]spiro-[cyclopentane-1,3′-indol]-2′(1′H)-one hydrochloride] |
| 67 | CNC[C@@H](O)[C@H](c1ccccc1)n1ccc2c(OC)cccc21 (racemic) [Example 74, (1RS,2SR)-1-(4-methoxy-1H-indol-1-yl)-3-(methylamino)-1-phenyl propan-2-ol hydrochloride] |
| 67.9 | Cc1cn([C@@H](c2ccccc2)[C@H](O)CN)c2ccc(F)cc12 (racemic) [Example 118, (1SR,2RS)-3-amino-1-(5-fluoro-3-methyl-1H-indol-1-yl)-1-phenylpropan-2-ol hydrochloride] |
| 30.1 | CNC[C@H](O)[C@@H](c1ccccc1)n1cc(C#N)c2ccccc21 (racemic) [Example 28, 1-[(1RS,2SR)-2-hydroxy-3-(methylamino)-1-phenylpropyl]-1H-indole-3-carbonitrile hydrochloride] |
| 95.3 | CNC[C@@H](O)[C@@H](c1cccs1)n1ccc2ccccc21 [Example 102, (1S,2R)-1-(1H-indol-1-yl)-3-(methylamino)-1-(2-thienyl)propan-2-ol hydrochloride] |
| 91.7 | CNC[C@@H](O)[C@H](c1ccccc1)n1ccc2ccc(Cl)cc21 [Example 147, (1S,2R)-1-(6-chloro-1H-indol-1-yl)-3-(methylamino)-1-phenylpropan-2-ol hydrochloride] |

Same assay, conditions: test compound 10 μM (stated in cell); [3H]NE uptake, MDCK-Net6 cells

| inhibition at 10 µM [%] | SMILES |
| --- | --- |
| 66.5 | CN1CCN(C[C@H](O)[C@@H](c2ccccc2)n2ccc3cc(F)ccc32)CC1 (racemic) [Example 2, (1RS,2SR)-1-(5-fluoro-1H-indol-1-yl)-3-(4-methylpiperazin-1-yl)-1-phenylpropan-2-ol dihydrochloride] |
